Where two headings read alike, the source gives them in different places.
Legend:
[1] = test system: HT-29; assay: Inhibition of cells growth by colorimetric assay (SRB), HT-29; format: cell-based; conditions: for GI50: read-out: HT-29 GI50
Procedure, shortened: (§1)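 Human cancer cells (5×10^3/well) attached 18 h in RPMI 1640 10% FBS, then exposed 48 h at 37°C to compounds from 10 to 10^−8 μg/ml in DMSO/EtOH/PBS. TCA-fixed, SRB-stained, OD read at 490 nm; GI, TGI and LC derived from triplicate wells.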

[2] = test system: LNCaP; assay: Inhibition of cells growth by colorimetric assay (SRB), LNCaP; format: cell-based
Procedure, shortened: as §1

[3] = test system: Heart
Excerpt: (§2) Toxicity was asssessed by the methods reported in Toxicology in Vitro, 15 (2001) 571-577, J. Luber Narod et al.: “Evaluation of the use of in vitro methodolodies as tools for screening new compounds for potential in vivo toxicity”.

[4] = test system: Myelo
Excerpt: as §2

[5] = test system: IGROV-ET; assay: Inhibition of cells growth by colorimetric assay (SRB), IGROV-ET; format: cell-based; conditions: for GI50: read-out: IGROV-ET GI50
Procedure, shortened: as §1

[6] = test system: LoVo; assay: Inhibition of cells growth by colorimetric assay (SRB), LoVo; format: cell-based; conditions: for GI50: read-out: LOVO GI50
Procedure, shortened: as §1

[7] = test system: Liver
Excerpt: as §2

[8] = test system: DU-145; assay: Inhibition of cells growth by colorimetric assay (SRB), DU-145; format: cell-based; conditions: for GI50: read-out: DU-145 GI50
Procedure, shortened: as §1

[9] = test system: SK-OV-3; assay: Inhibition of cells growth by colorimetric assay (SRB), SK-OV-3; format: cell-based; conditions: for GI50 / LC50: Homo sapiens, SK-OV-3, 48 h; for GI50: read-out: SK-OV3 GI50
Procedure, shortened: as §1

[10] = test system: A-549; assay: Inhibition of cells growth by colorimetric assay (SRB), A-549; format: cell-based
Procedure, shortened: as §1

[11] = test system: HMEC1; assay: Inhibition of cells growth by colorimetric assay (SRB), HMEC1; format: cell-based; conditions: for GI50: read-out: HMEC-1 GI50
Procedure, shortened: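 Using sulforhodamine B, cell growth and viability are quantified after a 48 h drug exposure of cells maintained in RPMI 1640/10% FBS at 37 °C, 5% CO2. Concentrations span 10 to 10^−8 μg/ml; optical density is read at 490 nm.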

[12] = test system: IGROV-1; assay: Inhibition of cells growth by colorimetric assay (SRB), IGROV-1; format: cell-based; conditions: for GI50: read-out: IGROV GI50
Procedure, shortened: as §1

[13] = test system: SK-MEL-28; assay: Inhibition of cells growth by colorimetric assay (SRB), SK-MEL-28; format: cell-based; conditions: for GI50: read-out: MEL-28 GI50
Procedure, shortened: as §1

[14] = test system: SK-BR-3; assay: Inhibition of cells growth by colorimetric assay (SRB), SK-BR-3; format: cell-based; conditions: for GI50: read-out: SK-BR3 GI50
Procedure, shortened: as §1

[15] = test system: Kidney
Excerpt: as §2

[16] = test system: Skeletal
Excerpt: as §2

[17] = test system: PANC-1; assay: Inhibition of cells growth by colorimetric assay (SRB), PANC-1; format: cell-based; conditions: for GI50 / LC50 (concentration for 50% net cell kill): Homo sapiens, PANC-1, 48 h; for GI50: read-out: PANC-1 GI50
Procedure, shortened: as §1

[18] = test system: K-562; assay: Inhibition of cells growth by colorimetric assay (SRB), K-562; format: cell-based; conditions: for GI50: read-out: K-562 GI50
Procedure, shortened: as §1

[19] = test system: LoVo-Dox; assay: Inhibition of cells growth by colorimetric assay (SRB), LoVo-Dox; format: cell-based; conditions: for GI50: read-out: LOVO-DOX GI50
Procedure, shortened: as §1

[20] = Homo sapiens, 48 h, SRB assay, 48 hours exposure
[21] = IGROV-ET, SRB, 48 hours exposure
[22] = LOVO-DOX, SRB, 48 hours exposure

## C=COC(=O)Oc1c(C)c2c(c3c1[C@H]1SC[C@]4(NCCc5cc(OC(=O)OC(C)(C)C)c(OC)cc54)C(=O)OC[C@@H]3N3C1[C@H]1c4c(cc(C)c(OC)c4O)C[C@@H]([C@@H]3O)N1C)OCO2 (stereo partly shown) [Compound 176]
[1]; Homo sapiens, HT-29, 48 h, SRB assay, 48 hours exposure
  GI50: 3.83 nM
[1]; Homo sapiens, HT-29, 48 h, read-out: HT-29 LC50, SRB assay, 48 hours exposure
  LC50 (concentration for 50% cell killing): 11.2 µM
[1]; SRB assay, 48 hours exposure
  HT-29 TGI: 7.96E-09
[2]; Homo sapiens, LNCaP, 48 h, read-out: LNCAP GI50, SRB assay, 48 hours exposure
  GI50: 1.62 nM
[2]; Homo sapiens, LNCaP, 48 h, read-out: LNCAP LC50, SRB assay, 48 hours exposure
  CC50: 6.49 nM
[2]; SRB assay, 48 hours exposure
  LNCAP TGI: 3.25E-09
[3]
  Toxicity Data Heart: 1.98E-08
[4]
  Toxicity Data Myelo: 1.42E-08
[5]; [20]
  GI50: 4.88 nM
[5]; Homo sapiens, 48 h, read-out: IGROV-ET LC50, SRB assay, 48 hours exposure
  CC50: 3450 nM
[5]; SRB assay, 48 hours exposure
  IGROV-ET TGI: 3.38E-08
[6]; Homo sapiens, LoVo, 48 h, SRB assay, 48 hours exposure
  GI50: 11.1 nM
[6]; Homo sapiens, LoVo, 48 h, read-out: LOVO LC50, SRB assay, 48 hours exposure
  LC50 (concentration for 50% cell killing): 112 nM
[6]; SRB assay, 48 hours exposure
  LOVO TGI: 5.12E-08
[7]
  Toxicity Data Liver: 2.95E-08
[8]; Homo sapiens, DU-145, 48 h, SRB assay, 48 hours exposure
  GI50: 5.24 nM
[8]; Homo sapiens, DU-145, 48 h, read-out: DU-145 LC50, SRB assay, 48 hours exposure
  CC50: 8.36 µM
[8]; SRB assay, 48 hours exposure
  DU-145 TGI: 1.10E-08
[9]; SRB assay, 48 hours exposure
  GI50: 3.26 nM
  SK-OV3 TGI: 8.07E-09
[9]; read-out: SK-OV3 LC50, SRB assay, 48 hours exposure
  LC50: 0.011 µM
[10]; Homo sapiens, A549, 48 h, SRB assay, 48 hours exposure, read-out: A-549 GI50
  GI50: 2.75 nM
[10]; Homo sapiens, A549, 48 h, read-out: A-549 LC50, SRB assay, 48 hours exposure
  LC50 (concentration for 50% cell killing): 11.2 nM
[10]; SRB assay, 48 hours exposure
  A-549 TGI: 6.01E-09
[11]; Homo sapiens, HMEC-1, 48 h, SRB assay, 48 hours exposure
  GI50: 3.46 nM
[11]; Homo sapiens, HMEC-1, 48 h, read-out: HMEC-1 LC50, SRB assay, 48 hours exposure
  LC50: 11.2 µM
[11]; SRB assay, 48 hours exposure
  HMEC-1 TGI: 1.48E-07
[12]; Homo sapiens, IGROV-1, 48 h, SRB assay, 48 hours exposure
  GI50: 1.74 nM
[12]; Homo sapiens, IGROV-1, 48 h, read-out: IGROV LC50, SRB assay, 48 hours exposure
  CC50: 10.7 nM
[12]; SRB assay, 48 hours exposure
  IGROV TGI: 4.30E-09
[13]; Homo sapiens, SK-MEL-28, 48 h, SRB assay, 48 hours exposure
  GI50: 25.8 nM
[13]; Homo sapiens, SK-MEL-28, 48 h, read-out: MEL-28 LC50, SRB assay, 48 hours exposure
  CC50: 95.6 nM
[13]; SRB assay, 48 hours exposure
  MEL-28 TGI: 4.97E-08
[14]; Homo sapiens, SK-BR-3, 48 h, SRB assay, 48 hours exposure
  GI50: 2.7 nM
[14]; Homo sapiens, SK-BR-3, 48 h, read-out: SK-BR3 LC50, SRB assay, 48 hours exposure
  CC50: 40.6 nM
[14]; SRB assay, 48 hours exposure
  SK-BR3 TGI: 7.73E-09
[15]
  Toxicity Data Kidney: 2.80E-09
[16]
  Toxicity Data Skeletal: 2.41E-08
[17]; SRB assay, 48 hours exposure
  GI50: 5.31 nM
  PANC-1 TGI: 1.97E-08
[17]; read-out: PANC-1 LC50, SRB assay, 48 hours exposure
  LC50 (concentration for 50% net cell kill): 3.2 µM
[18]; Homo sapiens, K562, 48 h, SRB assay, 48 hours exposure
  GI50: 0.737 nM
[18]; Homo sapiens, K562, 48 h, read-out: K-562 LC50, SRB assay, 48 hours exposure
  LC50 (50% cell killing): 6.89 nM
[18]; SRB assay, 48 hours exposure
  K-562 TGI: 1.52E-09
[19]; [20]
  GI50: 47.3 nM
[19]; Homo sapiens, 48 h, read-out: LOVO-DOX LC50, SRB assay, 48 hours exposure
  CC50: 11.2 µM
[19]; SRB assay, 48 hours exposure
  LOVO-DOX TGI: 1.15E-06

## COc1cc2c(cc1OC(=O)Cc1cc(=O)oc3cc(N(C)C)ccc13)CCN[C@]21CS[C@@H]2c3c(OC(C)=O)c(C)c4c(c3[C@H](COC1=O)N1C2[C@H]2c3c(cc(C)c(OC)c3OC(=O)Cc3cc(=O)oc5cc(N(C)C)ccc35)C[C@@H]([C@@H]1O)N2C)OCO4 (stereo partly shown) [Compound 77]
[1]; HT-29, SRB, 48 hours exposure
  HT-29 TGI: 9.52E-09
  GI50: 2.96 nM
[1]; Homo sapiens, HT-29, 48 h, read-out: HT-29 LC50, HT-29, SRB, 48 hours exposure
  LC50 (concentration for 50% cell killing): 10.1 µM
[2]; LNCAP, SRB, 48 hours exposure
  LNCAP TGI: 6.12E-10
[2]; read-out: LNCAP GI50, LNCAP, SRB, 48 hours exposure
  GI50: 0.328 nM
[2]; read-out: LNCAP LC50, LNCAP, SRB, 48 hours exposure
  CC50: 1.58 nM
[3]
  Toxicity Data Heart: 1.64E-08
[4]
  Toxicity Data Myelo: 8.52E-09
[5]; [21]
  IGROV-ET TGI: 9.57E-08
  GI50: 4.22 nM
[5]; read-out: IGROV-ET LC50, IGROV-ET, SRB, 48 hours exposure
  CC50: 303 nM
[6]; LOVO, SRB, 48 hours exposure
  LOVO TGI: 3.96E-09
  GI50: 1.91 nM
[6]; read-out: LOVO LC50, LOVO, SRB, 48 hours exposure
  LC50 (concentration for 50% cell killing): 8.21 nM
[7]
  Toxicity Data Liver: 9.53E-09
[8]; DU-145, SRB, 48 hours exposure
  DU-145 TGI: 1.45E-09
  GI50: 0.488 nM
[8]; Homo sapiens, DU-145, 48 h, read-out: DU-145 LC50, DU-145, SRB, 48 hours exposure
  CC50: 10.1 µM
[9]; SK-OV3, SRB, 48 hours exposure
  GI50: 2.55 nM
  SK-OV3 TGI: 7.76E-09
[9]; read-out: SK-OV3 LC50, SK-OV3, SRB, 48 hours exposure
  LC50: 10.1 µM
[10]; A-549, SRB, 48 hours exposure
  TGI A-549: 3.64E-09
[10]; A-549, SRB, 48 hours exposure, read-out: GI50 A-549
  GI50: 2.11 nM
[10]; read-out: A-549 LC50, A-549, SRB, 48 hours exposure
  LC50 (concentration for 50% cell killing): 6.29 nM
[11]; HMEC-1, SRB, 48 hours exposure
  HMEC-1 TGI: 5.28E-08
  GI50: 5.28 nM
[11]; Homo sapiens, HMEC-1, 48 h, read-out: HMEC-1 LC50, HMEC-1, SRB, 48 hours exposure
  LC50: 10.1 µM
[12]; IGROV, SRB, 48 hours exposure
  IGROV TGI: 1.53E-09
  GI50: 0.454 nM
[12]; read-out: IGROV LC50, IGROV, SRB, 48 hours exposure
  CC50: 8.82 nM
[13]; MEL-28, SRB, 48 hours exposure
  MEL-28 TGI: 5.06E-10
  GI50: 0.266 nM
[13]; read-out: MEL-28 LC50, MEL-28, SRB, 48 hours exposure
  CC50: 0.962 nM
[14]; SK-BR3, SRB, 48 hours exposure
  SK-BR3 TGI: 2.04E-09
  GI50: 0.475 nM
[14]; read-out: SK-BR3 LC50, SK-BR3, SRB, 48 hours exposure
  CC50: 8.12 nM
[15]
  Toxicity Data Kidney: 3.22E-09
[16]
  Toxicity Data Skeletal: 2.20E-09
[17]; PANC-1, SRB, 48 hours exposure
  GI50: 3.27 nM
  PANC-1 TGI: 9.14E-09
[17]; read-out: PANC-1 LC50, PANC-1, SRB, 48 hours exposure
  LC50 (concentration for 50% net cell kill): 6.3 µM
[18]; K-562, SRB, 48 hours exposure
  K-562 TGI: 7.77E-10
  GI50: 0.277 nM
[18]; read-out: K-562 LC50, K-562, SRB, 48 hours exposure
  LC50 (50% cell killing): 37.9 nM
[19]; Homo sapiens, 48 h, read-out: LOVO-DOX LC50, LOVO-DOX, SRB, 48 hours exposure
  CC50: 10.1 µM
[19]; [22]
  LOVO-DOX TGI: 9.39E-08
  GI50: 31.3 nM

Source: US7759345B2, “Antitumoral derivatives of ET-743” (priority 2001, dated 2010)
